Where two headings read alike, the source gives them in different places.
Legend:
ALK mutant L1196M = molecular target: T1, ALK mutant L1196M (Homo sapiens, UniProt Q9UM73, L1196M); experiment: Off-chip mobility shift assay (Carna Biosciences), ALK L1196M; type: biochemical
T1 construct: purchased Carna Biosciences (Chuo-ku, Kobe, Japan)
Description: (§1) The activities of ALK wild type, its mutant F1174L, R1275Q, L1196M and EML4-ALK, NPM1-ALK were also determined using off-chip mobility shift assay at Carna Biosciences (Chuo-ku, Kobe, Japan). In brief, 5 μL of ×4 compound solution, 5 μL of ×4 substrate/ATP/metal solution and 10 μL of ×2 kinase solution were prepared with assay buffer (20 mM HEPES, 0.01% Triton X-100, 2 mM DTT, pH 7.5) and mixed and incubated in a well of polypropylene 384 well microplate for 1 or 5 hours (depending on the enzyme). The ATP concentration used in the reaction was 50 μM for ALK wild type, F1174L mutant, EML4-ALK and NPM1-ALK, and 100 μM for R1275Q and 72 μM for L1196M. An aliquot of 60 μL of termination buffer (QuickScout Screening Assist MSA, Carna Biosciences) was added to each well to terminate the reactions. The reaction mixture was applied to LabChip3000 system (Caliper Life Science), and the product and substrate peptide peaks were separated and quantitated. The kinase reaction was evaluated by the product ratio calculated from peak heights of product (P) and substrate (S) peptides (P/(P+S)). IC50 value was calculated from concentration vs. % Inhibition curves by fitting to a four parameter logistic curve.

ALK wild type = molecular target: T2, ALK wild type (Homo sapiens, UniProt Q9UM73); experiment: Off-chip mobility shift assay (Carna Biosciences), ALK wild type; type: biochemical
T2 construct: purchased Carna Biosciences (Chuo-ku, Kobe, Japan)
Description: as §1

ALK [1] = molecular target: T3, ALK (Homo sapiens, UniProt Q9UM73); experiment: Inhibition of ALK phosphorylation (sandwich ELISA, pY1604), cell line not given; type: cell-based; set-up: fused on or other part: Q9HC35 (Echinoderm microtubule-associated protein-like 4); conditions: 1 hour, serum-free
Description: (§2) Karpas299 and SU-DHL-1 cells were purchased from Deutsche Sammlung von Mikroorganismen and Zellkulturen (Germany). H2228 was purchased from American Type Culture Collection (USA). All cells were cultured in the recommended medium and serum concentration. Cells were maintained at 37° C. in a humidified atmosphere with 5% CO2. For ALK kinase phosphorylation, cells were seeded in 96-well plates overnight in medium supplemented with 10% fetal bovine serum […]. After 24 hours, the medium was removed and cells were cultured in serum-free medium at 37° C. in the presence of various concentrations of the test articles for 1 hour. After incubation with the tested articles, cells were washed once with HBSS supplemented with 1 mM Na3VO4 and protein lysates were generated. Subsequently, phosphorylation of ALK was assessed by a sandwich ELISA method using an immobilized anti-total-ALK antibody and an anti-phospho-ALK antibody (pY1604) as a detection antibody. IC50 value was calculated using median-effect method. (Chou 2006).
Target sequence in this assay (Q9UM73 1058-1620 limits assumed): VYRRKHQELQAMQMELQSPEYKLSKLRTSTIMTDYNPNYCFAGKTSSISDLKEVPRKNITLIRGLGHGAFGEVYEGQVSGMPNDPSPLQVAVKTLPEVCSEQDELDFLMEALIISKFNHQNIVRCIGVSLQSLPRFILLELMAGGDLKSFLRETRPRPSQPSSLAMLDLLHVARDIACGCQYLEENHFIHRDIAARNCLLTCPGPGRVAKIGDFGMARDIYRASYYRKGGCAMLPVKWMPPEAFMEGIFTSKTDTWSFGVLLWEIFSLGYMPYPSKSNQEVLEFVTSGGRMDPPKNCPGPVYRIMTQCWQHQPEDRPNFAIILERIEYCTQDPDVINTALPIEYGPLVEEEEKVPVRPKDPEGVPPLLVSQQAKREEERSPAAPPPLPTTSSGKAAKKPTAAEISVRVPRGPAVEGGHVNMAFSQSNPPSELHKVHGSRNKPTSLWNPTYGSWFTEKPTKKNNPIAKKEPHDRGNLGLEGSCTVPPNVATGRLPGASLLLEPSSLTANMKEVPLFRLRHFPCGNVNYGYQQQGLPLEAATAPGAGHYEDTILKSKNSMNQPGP

H2228 = experiment: Cell proliferation assay (MTS / BrdU), H2228; type: cell-based; conditions: Homo sapiens, NCI-H2228; 72 hours, 2% FBS
Description: as §2
(§3) For cell proliferation assay, cells were seeded in 96-well pates at low density at 37° C. in medium supplemented with 10% FBS and after 24 hours were switched to low serum medium (2% FBS). Cells were further incubated in the presence of the test articles at various concentrations at 37° C. for 72 hours. Two assays were employed to determine the relative cell numbers. One is a 3-(4,5-dimethylthiazol-2-yl)-5-(3-carboxymethoxyphenyl)-2-(4-sulfophenyl)-2H-tetrazolium (MTS) assay using a CellTiter 96® Aqueous Non-Radioactive Cell Proliferation kit (Promega), and the other is a BrdU incorporation assay using a DELFIA® Cell Proliferation Kit (Perkin Elmer). IC50 value was calculated using median-effect method (Chou 2006).

ALK mutant R1275Q = molecular target: T4, ALK mutant R1275Q (Homo sapiens, UniProt Q9UM73, R1275Q); experiment: Off-chip mobility shift assay (Carna Biosciences), ALK R1275Q; type: biochemical
T4 construct: purchased Carna Biosciences (Chuo-ku, Kobe, Japan)
Description: as §1

ALK mutant F1174L = molecular target: T5, ALK mutant F1174L (Homo sapiens, UniProt Q9UM73, F1174L); experiment: Off-chip mobility shift assay (Carna Biosciences), ALK F1174L; type: biochemical
T5 construct: purchased Carna Biosciences (Chuo-ku, Kobe, Japan)
Description: as §1

Karpas299 = experiment: Cell proliferation assay (MTS / BrdU), Karpas299; type: cell-based; conditions: Homo sapiens, KARPAS-299; 72 hours, 2% FBS
Description: as §2, §3

ALK [2] = molecular target: T3, ALK; experiment: Inhibition of ALK phosphorylation (sandwich ELISA, pY1604) in SU-DHL-1 cells; type: cell-based; set-up: NPM1 portion (fusion partner, nucleophosmin, P06748); host or cells: Karpas299; SU-DHL-1; the other entry of the earlier key: NPM1 (P06748, Nucleophosmin); conditions: 1 hour, serum-free
Description: as §2
Target sequence in this assay (Q9UM73 with tags, fused parts or gaps): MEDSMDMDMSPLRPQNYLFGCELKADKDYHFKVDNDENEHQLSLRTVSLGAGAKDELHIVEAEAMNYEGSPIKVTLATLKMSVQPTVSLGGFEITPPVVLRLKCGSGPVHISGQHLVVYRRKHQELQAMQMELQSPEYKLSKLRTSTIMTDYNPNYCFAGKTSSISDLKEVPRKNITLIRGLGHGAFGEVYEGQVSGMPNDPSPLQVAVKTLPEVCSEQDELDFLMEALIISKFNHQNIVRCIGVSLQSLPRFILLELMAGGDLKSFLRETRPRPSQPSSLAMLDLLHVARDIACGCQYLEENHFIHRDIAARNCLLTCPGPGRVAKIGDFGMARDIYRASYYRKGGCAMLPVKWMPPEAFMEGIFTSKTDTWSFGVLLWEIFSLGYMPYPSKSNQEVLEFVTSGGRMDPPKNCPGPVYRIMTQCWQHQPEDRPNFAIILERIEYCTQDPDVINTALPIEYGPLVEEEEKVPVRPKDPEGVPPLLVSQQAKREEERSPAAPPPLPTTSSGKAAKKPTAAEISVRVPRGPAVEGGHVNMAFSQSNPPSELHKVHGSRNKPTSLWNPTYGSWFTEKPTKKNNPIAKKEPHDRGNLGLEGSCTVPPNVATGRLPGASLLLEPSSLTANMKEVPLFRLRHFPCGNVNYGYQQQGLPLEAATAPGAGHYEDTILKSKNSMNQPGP

[3] = test system: lung cancer cell line H2228; experiment: H2228 xenograft studies in athymic mice; type: in vivo, athymic mice (nude/nud mouse); conditions: for reduced the tumor size: 14 days oral dosing at 60 mg/kg (BID)
From the text: Xenograft model was developed in athymic mice (nude/nud mouse) with lung cancer cell line H2228 purchased from the American Type Culture Collection Company (Manassas, Va., USA). In brief, H2228 cells (1×10^7) were implanted s.c. into the hind flank region of each mouse and allowed to grow to the designated size (c.a. 150-200 mm^3) before administration of the tested articles. The tested articles were given orally at various dose levels twice daily for 10-14 days. Tumor volume and body weight were measured during the experiments. Tumor regression values were determined using the standard approach.

SU-DHL-1 = experiment: Cell proliferation assay (MTS / BrdU), SU-DHL-1; type: cell-based; conditions: Homo sapiens, 72 hours, 2% FBS
Description: as §2, §3

ALK [4] = molecular target: T3, ALK; experiment: Inhibition of ALK phosphorylation (sandwich ELISA, pY1604) in Karpas299 cells; type: cell-based; set-up: NPM1 portion (fusion partner, nucleophosmin, P06748); host or cells: Karpas299; SU-DHL-1; the other entry of the earlier key: NPM1 (P06748, Nucleophosmin); conditions: 1 hour, serum-free
Description: as §2

EML4-ALK = molecular target: T6, EML4-ALK (Homo sapiens, UniProt Q9UM73); experiment: Off-chip mobility shift assay (Carna Biosciences), EML4-ALK; type: biochemical
T6 construct: purchased Carna Biosciences (Chuo-ku, Kobe, Japan); the other entry of the earlier key: EML4 (Q9HC35, Echinoderm microtubule-associated protein-like 4)
Description: as §1

NPM1-ALK = molecular target: T7, NPM1-ALK (Homo sapiens, UniProt Q9UM73); experiment: Off-chip mobility shift assay (Carna Biosciences), NPM1-ALK; type: biochemical
T7 construct: purchased Carna Biosciences (Chuo-ku, Kobe, Japan); the other entry of the earlier key: NPM1 (P06748, Nucleophosmin)
Description: as §1

cytochrome P450 3A4 = cytochrome P450 3A4 (Homo sapiens, UniProt P08684); conditions: reported; causing clinical drug-drug interactions; cited from earlier work
ALK [5] = molecular target: T3, ALK; experiment: ALK enzyme activity assay (HTRF KinEASE); type: biochemical; set-up: purchased Millipore Company (Billerica, Mass., USA); conditions: ATP 25 μM, 30° C. 30 minutes
Description: ALK Enzyme Activity Assay:
ALK kinase was purchased from Millipore Company (Billerica, Mass., USA). HTRF®KinEASET™ was purchased from Cisbio Company (Bedford, Mass., USA). The assay was conducted according to the procedure provided in the assay kit. In brief, incubation was carried out in the kinase buffer containing ALK (0.3 ng/μL), ATP (25 μM), TK substrate-biotin (10 μM), DTT (1 mM), MgCl2 (5 mM), MnCl2 (5 mM) in the presence of the tested articles at various concentrations in 384-well plate at 30° C. for 30 minutes. The reaction was stopped by addition of Sa-XL665 in EDTA solution, and the phosphorylated substrate was detected with a proprietary phospho-specific monoclonal antibody labeled with Eu^3+-Cryptate and a proprietary biotinylated kinase substrate detected using XL665 labeled streptavidin. IC50 value was calculated using median-effect method (Chou 2006).
Target sequence in this assay (Q9UM73 19-1620): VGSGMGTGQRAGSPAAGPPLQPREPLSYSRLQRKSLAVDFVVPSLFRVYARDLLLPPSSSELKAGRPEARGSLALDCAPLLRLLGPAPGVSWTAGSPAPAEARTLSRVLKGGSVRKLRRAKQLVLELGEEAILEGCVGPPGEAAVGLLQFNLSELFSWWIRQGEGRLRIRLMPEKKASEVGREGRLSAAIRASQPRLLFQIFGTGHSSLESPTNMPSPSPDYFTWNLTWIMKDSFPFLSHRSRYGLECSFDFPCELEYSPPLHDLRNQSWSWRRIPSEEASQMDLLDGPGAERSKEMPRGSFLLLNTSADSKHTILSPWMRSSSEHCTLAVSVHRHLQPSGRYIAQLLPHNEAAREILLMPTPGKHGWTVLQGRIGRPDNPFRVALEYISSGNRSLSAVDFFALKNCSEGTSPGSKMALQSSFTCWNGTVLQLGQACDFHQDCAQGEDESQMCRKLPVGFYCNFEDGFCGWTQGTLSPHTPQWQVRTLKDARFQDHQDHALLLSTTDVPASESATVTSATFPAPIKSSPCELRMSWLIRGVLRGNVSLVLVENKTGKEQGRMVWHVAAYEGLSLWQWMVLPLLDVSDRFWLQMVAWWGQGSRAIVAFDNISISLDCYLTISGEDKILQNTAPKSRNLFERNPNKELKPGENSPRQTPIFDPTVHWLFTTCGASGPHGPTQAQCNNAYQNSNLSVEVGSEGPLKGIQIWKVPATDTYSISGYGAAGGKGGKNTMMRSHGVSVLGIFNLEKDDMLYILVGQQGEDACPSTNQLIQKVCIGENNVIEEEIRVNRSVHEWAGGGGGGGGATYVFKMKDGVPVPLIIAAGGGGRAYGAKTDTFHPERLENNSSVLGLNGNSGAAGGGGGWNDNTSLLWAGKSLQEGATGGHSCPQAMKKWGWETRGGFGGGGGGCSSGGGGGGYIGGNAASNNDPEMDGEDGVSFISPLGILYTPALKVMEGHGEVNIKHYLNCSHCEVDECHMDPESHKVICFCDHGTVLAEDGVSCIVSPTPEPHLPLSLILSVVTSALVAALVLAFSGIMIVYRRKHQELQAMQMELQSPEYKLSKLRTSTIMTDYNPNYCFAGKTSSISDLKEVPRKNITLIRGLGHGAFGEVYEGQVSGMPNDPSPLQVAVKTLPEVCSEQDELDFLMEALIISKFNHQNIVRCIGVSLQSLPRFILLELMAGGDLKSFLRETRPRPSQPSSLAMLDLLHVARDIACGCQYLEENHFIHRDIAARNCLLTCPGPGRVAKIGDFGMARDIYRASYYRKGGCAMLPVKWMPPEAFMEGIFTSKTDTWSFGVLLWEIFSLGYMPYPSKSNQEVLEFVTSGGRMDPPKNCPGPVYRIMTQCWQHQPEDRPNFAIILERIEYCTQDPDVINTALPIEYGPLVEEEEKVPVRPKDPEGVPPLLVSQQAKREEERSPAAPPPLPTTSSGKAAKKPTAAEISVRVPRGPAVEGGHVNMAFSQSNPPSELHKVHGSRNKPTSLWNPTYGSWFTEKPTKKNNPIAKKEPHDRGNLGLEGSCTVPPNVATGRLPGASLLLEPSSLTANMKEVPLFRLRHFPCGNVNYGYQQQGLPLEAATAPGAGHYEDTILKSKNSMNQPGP

[6] = Pharmacokinetic assay, intravenous and oral administration; type: in vivo, Sprague-Dawley rats or beagle dogs; conditions: plasma; for half-life: after oral administration in rats or dogs; for bioavailability: oral administration in rats or dogs, read-out: oral bioavailabilty
Description: The tested articles were given to Sprague-Dawley rats or beagle dogs by intravenous and oral administration. Plasma samples were prepared from blood samples which were collected at various time points. The plasma concentrations of the tested articles were determined by specific LC-MS/MS analytical methods. Pharmacokinetic parameters were calculated with WinNonlin®.

[7] = footnote #: L1196M, read-out: IC50 ALK Kinase (# mutant L1196M)
[8] = mobility shift, ATP 72 μM, read-out: IC50 ALK L1196M
[9] = footnote #: ALK wild type, read-out: IC50 ALK Kinase (# ALK wild type)
[10] = mobility shift, ATP 50 μM, read-out: IC50 ALK wild type
[11] = footnote #: R1275Q, read-out: IC50 ALK Kinase (# mutant R1275Q)
[12] = mobility shift, ATP 100 μM, read-out: IC50 ALK R1275Q
[13] = footnote #: F1174L, read-out: IC50 ALK Kinase (# mutant F1174L)
[14] = mobility shift, ATP 50 μM, read-out: IC50 ALK F1174L
[15] = footnote #: EML4-ALK, read-out: IC50 ALK Kinase (# EML4-ALK)
[16] = mobility shift, ATP 50 μM, read-out: IC50 EML4-ALK
[17] = footnote #: NPM1-ALK, read-out: IC50 ALK Kinase (# NPM1-ALK)
[18] = mobility shift, ATP 50 μM, read-out: IC50 NPM1-ALK

T5 sequence (Q9UM73 19-1620 F1174L): as the sequence (Q9UM73 19-1620) above, with F1156L counted along it
T4 sequence (Q9UM73 19-1620 R1275Q): as the sequence (Q9UM73 19-1620) above, with R1257Q counted along it
T2 sequence (Q9UM73 19-1620): as the sequence (Q9UM73 19-1620) above
T6 sequence (Q9UM73 with tags, fused parts or gaps): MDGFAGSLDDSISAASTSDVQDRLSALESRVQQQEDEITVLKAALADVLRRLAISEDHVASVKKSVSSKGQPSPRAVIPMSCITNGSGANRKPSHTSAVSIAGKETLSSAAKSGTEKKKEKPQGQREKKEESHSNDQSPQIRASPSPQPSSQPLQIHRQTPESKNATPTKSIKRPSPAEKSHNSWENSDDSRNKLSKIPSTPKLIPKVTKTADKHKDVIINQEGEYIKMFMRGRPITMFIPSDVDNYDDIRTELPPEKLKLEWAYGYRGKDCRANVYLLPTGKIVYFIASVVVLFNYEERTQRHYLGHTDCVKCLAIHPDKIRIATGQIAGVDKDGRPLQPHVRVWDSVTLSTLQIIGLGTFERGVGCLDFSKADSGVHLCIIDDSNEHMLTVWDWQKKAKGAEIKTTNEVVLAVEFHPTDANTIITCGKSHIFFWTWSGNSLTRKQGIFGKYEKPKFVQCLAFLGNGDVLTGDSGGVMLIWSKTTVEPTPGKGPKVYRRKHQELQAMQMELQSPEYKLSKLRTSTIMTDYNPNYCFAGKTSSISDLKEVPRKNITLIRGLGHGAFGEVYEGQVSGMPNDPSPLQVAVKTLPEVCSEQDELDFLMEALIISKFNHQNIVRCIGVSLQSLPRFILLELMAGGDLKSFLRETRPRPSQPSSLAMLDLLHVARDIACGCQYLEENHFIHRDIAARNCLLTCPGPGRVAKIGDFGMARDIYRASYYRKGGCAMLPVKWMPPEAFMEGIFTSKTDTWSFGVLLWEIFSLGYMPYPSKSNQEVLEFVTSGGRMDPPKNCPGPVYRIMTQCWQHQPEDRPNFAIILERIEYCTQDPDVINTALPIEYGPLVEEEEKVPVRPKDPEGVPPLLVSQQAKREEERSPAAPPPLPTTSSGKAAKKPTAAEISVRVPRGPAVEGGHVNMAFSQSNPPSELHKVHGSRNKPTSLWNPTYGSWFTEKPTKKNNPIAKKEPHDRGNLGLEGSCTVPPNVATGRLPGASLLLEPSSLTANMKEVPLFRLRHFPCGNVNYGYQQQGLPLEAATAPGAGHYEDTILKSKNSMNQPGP
T1 sequence (Q9UM73 19-1620 L1196M): as the sequence (Q9UM73 19-1620) above, with L1178M counted along it
Sequence of cytochrome P450 3A4 (P08684 whole entry): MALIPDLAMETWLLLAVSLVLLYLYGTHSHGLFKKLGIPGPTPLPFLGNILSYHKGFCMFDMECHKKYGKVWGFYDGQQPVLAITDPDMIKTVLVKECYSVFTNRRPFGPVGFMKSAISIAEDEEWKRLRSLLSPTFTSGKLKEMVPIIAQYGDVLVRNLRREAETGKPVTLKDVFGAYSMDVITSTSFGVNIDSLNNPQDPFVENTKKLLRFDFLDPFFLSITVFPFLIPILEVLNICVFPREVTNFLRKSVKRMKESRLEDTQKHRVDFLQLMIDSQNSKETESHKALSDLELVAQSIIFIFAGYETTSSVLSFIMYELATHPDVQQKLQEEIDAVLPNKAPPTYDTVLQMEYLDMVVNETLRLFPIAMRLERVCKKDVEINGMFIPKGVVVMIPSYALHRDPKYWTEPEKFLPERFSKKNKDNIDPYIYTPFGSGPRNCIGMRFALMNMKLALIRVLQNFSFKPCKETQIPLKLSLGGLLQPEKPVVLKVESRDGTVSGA

| Structure (SMILES) | IC50 (ALK mutant L1196M; [7]) [nM] | IC50 (ALK mutant L1196M; [8]) [nM] | IC50 (ALK wild type; [9]) [nM] | IC50 (ALK wild type; [10]) [nM] | IC50 (ALK [1]) [nM] | IC50 (H2228) [nM] | IC50 (ALK mutant R1275Q; [11]) [nM] | IC50 (ALK mutant R1275Q; [12]) [nM] | IC50 (ALK mutant F1174L; [13]) [nM] | IC50 (ALK mutant F1174L; [14]) [nM] | IC50 (Karpas299) [nM] | IC50 (ALK [2]) [nM] | inhibition of tumor growth compared to the vehicle control ([3]; 20 mg/kg oral BID) [%] | inhibition of tumor growth compared to the vehicle control ([3]; 60 mg/kg oral BID) [%] | reduced the tumor size [3] | IC50 (SU-DHL-1) [nM] | IC50 (ALK [4]) [nM] | IC50 (EML4-ALK; [15]) [nM] | IC50 (EML4-ALK; [16]) [nM] | IC50 (ALK [5]) [nM] | also measured |
| --- | --- | --- | --- | --- | --- | --- | --- | --- | --- | --- | --- | --- | --- | --- | --- | --- | --- | --- | --- | --- | --- |
| C[C@@H](Oc1cc(-c2ccc(P(C)(C)=O)cc2F)cnc1N)c1c(Cl)ccc(F)c1Cl [Example 25, 3-[(1R)-1-(2,6-dichloro-3-fluoro-phenyl)ethoxy]-5-(4-dimethylphosphoryl-2-fluoro-phenyl)pyridin-2-amine] | < 100 | < 50 | < 100 | < 50 | < 50 | < 100 | < 100 | < 50 | < 100 | < 50 | < 100 | < 50 | 73 | 93 | approximately 80% | < 100 | < 100 | < 100 | < 50 |  | inhibition of tumor growth compared to the vehicle control ([3]; 6 mg/kg oral BID): 46%; IC50 (NPM1-ALK; [17]): < 100 nM; IC50 (NPM1-ALK; [18]): < 50 nM |
| C[C@@H](Oc1cc(-c2cnn(C3CCNCC3)c2)cnc1N)c1c(Cl)ccc(F)c1Cl [crizotinib] |  |  |  |  |  |  |  |  |  |  |  |  |  |  |  |  |  |  |  |  | cytochrome P450 3A4 inhibition (cytochrome P450 3A4): time-dependent cytochrome P450 3A4 inhibitor |
| C[C@@H](Oc1cc(-c2ccc(P(C)(C)=O)cc2)cnc1N)c1c(Cl)ccc(F)c1Cl [Example 23, 3-[(1R)-1-(2,6-dichloro-3-fluoro-phenyl)ethoxy]-5-(4-dimethylphosphorylphenyl)pyridin-2-amine] |  |  |  |  | < 50 | < 100 |  |  |  |  | < 100 | < 50 |  |  |  | < 100 | < 100 |  |  | 100 to 500 |  |
| COc1cc(P(C)(C)=O)ccc1-c1cnc(N)c(OC(C)c2c(Cl)ccc(F)c2Cl)c1 (stereo not shown) [Example 8, 3-[1-(2,6-dichloro-3-fluoro-phenyl)ethoxy]-5-(4-dimethylphosphoryl-2-methoxy-phenyl)pyridin-2-amine] |  |  |  |  |  | < 100 |  |  |  |  | < 100 | < 50 |  |  |  | < 100 | < 100 |  |  | < 100 | half-life [6]: > 3 h; bioavailability [6]: > 20% |
| COc1cc(P(C)(C)=O)ccc1-c1cnc(N)c(O[C@H](C)c2c(Cl)ccc(F)c2Cl)c1 [Example 24, 3-[(1R)-1-(2,6-dichloro-3-fluoro-phenyl)ethoxy]-5-(4-dimethylphosphoryl-2-methoxy-phenyl)pyridin-2-amine] | < 100 | < 50 | < 100 | < 50 | < 50 | < 100 | < 100 | < 50 | < 100 | < 50 | < 100 | < 50 | 79 | 93 | approximately 80% | < 100 | < 100 | < 100 | < 50 |  | IC50 (NPM1-ALK; [17]): < 100 nM; IC50 (NPM1-ALK; [18]): < 50 nM |
| CC(Oc1cc(-c2ccc(P(C)(C)=O)cc2)cnc1N)c1c(Cl)ccc(F)c1Cl (stereo not shown) [Example 1, 3-[1-(2,6-dichloro-3-fluoro-phenyl)ethoxy]-5-(4-dimethylphosphorylphenyl)pyridin-2-amine] |  |  |  |  | < 500 | < 100 |  |  |  |  | 100 to 500 |  |  |  |  | < 100 | < 100 |  |  | 100 to 500 | half-life [6]: > 3 h; bioavailability [6]: > 20% |

— patent US8951993B2, “Phosphorus containing compounds as protein kinase inhibitors” (Jiangsu Hansoh Pharmaceutical Co., Ltd., priority 2011, dated 2015)
